Source: patent US20230293629A1, “METHODS FOR ATTENUATING RELEASE OF INFLAMMATORY MEDIATORS AND PEPTIDES USEFUL THEREIN” (BIOMARCK PHARMACEUTICALS LTD., priority 2006, published 2023)
pIC50: −log10 of the molar value.

What was measured:
PP1 = test: Protein phosphatase activity assay in NHBE cell lysates, PP1; assay type: cell-based, human; conditions: NHBE cells after 8-Br-cGMP
Method: (§1) Protein Phosphatase Activity Assay—PP1 and PP2A activities were measured using a protein phosphatase assay system (Life Technologies, Inc.) as known in the art with slight modification. Huang et al., Adv. Exp. Med Biol. 396, 209-215 (1996). Briefly, NHBE cells were treated with 8-Br-cGMP or medium alone for 5 min. Cells were then scraped into a lysis buffer (50 mM Tris-HCl (pH 7.4), 0.1% β-mecaptoethanol, 0.1 mM EDTA, 1 mM benaamidine, 10 μg/ml pepstatin A, 10 μg/ml leupeptin) and disrupted by sonication for 20 s at 4° C. Cell lysates were centrifuged and the supernatants saved for phosphatase activity assay. The assay was performed using ^32P-labeled phosphorylase A as a substrate. Released ^32Pi was counted by scintillation. The protein concentration of each sample was determined by the Bradford assay. PP2A activity was expressed as the sample total phosphatase activity minus the activity remaining in the presence of 1 nM okadaic acid. PP1 activity was expressed as the difference between the activities remaining in the presence of 1 nM and 1 μM okadaic acid, respectively. Protein phosphatase activities were reported as nmol of Pi released per min/mg total protein.

[1] = tested on: MARCKS phosphorylation in NHBE cells; test: MARCKS phosphorylation in NHBE cells, radiolabeled immunoprecipitation assay; assay type: cell-based, human
Method: Radiolabeled Immunoprecipitation Assay—When labeling with [^32P]phosphate, cells were preincubated for 2 h in phosphate-free Dulbecco's modified Eagle's medium containing 0.2% bovine serum albumin and then labeled with 0.1 mCi/ml [^32P]orthophosphate (9000 Ci/mmol, PerkinElmer Life Sciences) for 2 h. For labeling with [^3H]myristic acid or 3H-amino acids, cells were incubated overnight in medium containing 50 μCi/ml [^3H]myristic acid (49 Ci/mmol, PerkinElmer Life Sciences) or 0.2 mCi/ml [^3H]leucine (159 Ci/mmol, PerkinElmer Life Sciences) plus 0.4 mCi/ml [^3H]proline (100 Ci/mmol, PerkinElmer Life Sciences). Following labeling, cells were exposed to stimulatory reagents for 5 min. When an inhibitor was used, cells were preincubated with the inhibitor for 15 min prior to stimulation. At the end of the treatments, cells were lysed in a buffer containing 50 mM Tris-HCl (pH 7.5), 150 mM NaCl, 1 mM EDTA, 10% glycerol, 1% Nonidet P-40, 1 mM phenylmethylsulfonyl fluoride, 1 mM benzamidine, 10 μg/ml pepstatin A, and 10 μg/ml leupeptin. Trichloroacetic acid precipitation and scintillation counting may determine the radiolabeling efficiency in each culture. Immunoprecipitation of MARCKS protein was carried out according to the method of Spizz and Blackshear using cell lysates containing equal counts/min. Spizz et al., J. Biol. Chem. 271, 553-562 (1996). Precipitated proteins were resolved by 8% SDS-polyacrylamide gel electrophoresis and visualized by autoradiography. Anti-human MARCKS antibody (2F12) and nonimmune control antibody (6F6) were used in this assay.
To assess MARCKS or MARCKS-associated protein complexes in different subcellular fractions, radiolabeled and treated cells were scraped into a homogenization buffer (50 mM Tris-HCl (pH 7.5), 10 mM NaCl, 1 mM EDTA, 1 mM phenylmethylsulfonyl fluoride, 1 mM benzamidine, 10 μg/ml pepstatin A, 10 μg/ml leupeptin) and then disrupted by nitrogen cavitation (800 pounds/square inch for 20 min at 4° C.). Cell lysates were centrifuged at 600×g for 10 min at 4° C. to remove nuclei and unbroken cells. Post-nuclear supernatants were separated into membrane and cytosol fractions by ultracentrifugation at 400,000×g for 30 min at 4° C. The membrane pellet was solubilized in the lysis buffer by sonication. Immunoprecipitation was then carried out as described above.

[2] = tested on: isolated canine neutrophils; test: MPO secretion from isolated canine neutrophils stimulated with PMA + 8-Br-cGMP (FIG. 6, 10, 11); assay type: cell-based; conditions: FIG. 11; 8-Br-cGMP alone, until co-stimulation with PMA
Source text: The invention also relates to a new method for blocking any cellular exocytotic secretory process, especially those releasing inflammatory mediators from granules contained within inflammatory cells, whose stimulatory pathways involve the protein kinase C (PKC) substrate MARCKS protein and release of contents from membrane-bound vesicles. Specifically, the inventors have shown that stimulated release of the inflammatory mediator myloperoxidase from human (FIG. 6) or canine (FIG. 7) neutrophils can be blocked in a concentration-dependent manner by the MANS peptide. […] 10 or 100 μM of a control peptide (RNS) has no effect on MPO secretion. In FIG. 7, isolated neutrophils were stimulated to secrete myloperoxidase (MPO) with 100 nM PMA and 10 μM 8-Br-cGMP. […] 10 or 100 μM of a control peptide (RNS) has no effect on MPO secretion. Thus, the peptide may be used therapeutically to block the release of mediators of inflammation secreted from infiltrating inflammatory cells in any tissues. Many of these released mediators are responsible for the extensive tissue damage observed in a variety of chronic inflammatory diseases (i.e., respiratory diseases such as asthma, chronic bronchitis and COPD, inflammatory bowel diseases including ulcerative colitis and Crohn's disease, autoimmune diseases, skin diseases such as rosacea, eczema; and severe acne, arthritic and pain syndromes such as rheumatoid arthritis and fibromyalgia). This invention may be useful for treating diseases such as arthritis, chronic bronchitis, COPD and cystic fibrosis. This invention is accordingly useful for the treatment in both human and animal diseases, especially those affecting equines, canines, felines, and other household pets.
FIGS. 8-12 show MPO secretion for both humans and canines. In all of these experiments, isolated neutrophils were stimulated with LPS at a concentration of 1×10^−6 M for 10 minutes at 37° C. prior to adding the stimuli as indicated in the figures. The LPS primes the cells so they can respond to a secretagogue.
Isolation of PMNs from canine blood—The steps involved in isolating PMN include collecting 10 ml ACD anticoagulated blood. Then layering 5 ml on 3.5 ml PMN isolation media while ensuring that the PMN isolation media (IM) was at room temperature (RI). Next, the blood was centrifuged at room temperature for 30′, 550×g at 1700 RPMs. The low lower white band was transferred into 15 ml conical centrifuge tube (CCFT). Next, 2V HESS with 10% fetal bovine serum […] was added and centrifuged at room temperature for 10′, 400×g at 1400 RPMs. The pellet was then resuspended in 5 ml 1-1ESS with PBS. The cell suspension was added to 50 ml CCFT containing 20 ml of ice cold 0.88% NH4Cl and inverted two to three times. The resulting product was centrifuged for 10′, 800×g at 2000 RPMs, then aspirated and resuspended in 5 ml HBSS with FBS. The prep was examined by counting and cytospin and preferably for whole blood, the cell number should be between 10^9-10^11 cells and for PMNs, cell number should be between 2-4×10^7 cells. See generally, Wang et al., J. Immunol., “Neutrophil-induced changes in the biomechanical properties of endothelial cells: roles of ICAM-1 and reactive oxygen species,” 6487-94 (2000).
MPO Colorimetric Enzyme Assay—Samples were assayed for MPO activity in 96 well round bottom microtiter plates using a sandwich ELISA kit (R & D Systems, Minneapolis, Minn.). […]

[3] = tested on: isolated human neutrophils; test: MPO secretion from isolated human neutrophils stimulated with PMA + 8-Br-cGMP (FIG. 7, 8, 9); assay type: cell-based; conditions: FIG. 9; 8-Br-cGMP alone, until co-stimulation with PMA
PP2A [4] = test: Protein phosphatase activity assay in NHBE cell lysates, PP2A; assay type: cell-based, human
Method: as §1

NHBE cells = test: Mucin secretion from NHBE cells, ELISA; assay type: cell-based, human; conditions: FIG. 3; NHBE cells preincubated 15 min; okadaic acid 500 nM, fostriecin indicated concentrations
Method: It is believed that PKG acts to dephosphorylate MARCKS via activation of a protein phosphatase. […] NHBE cells were preincubated with the indicated concentration of fostriecin, okadaic acid (500 nM), or medium alone for 15 min and then stimulated with PMA (100 nM)+8-Br-cGMP (1 μM) for 15 min or with UTP (100 μM) for 2 h. Secreted mucin was measured by ELISA. […] Thus, dephosphorylation of MARCKS by a PKG-activated PP2A appears to be an essential component of the signaling pathway leading to mucin granule exocytosis.
MARCKS-related Peptides—Both the myristoylated N-terminal sequence (MANS) and the random N-terminal sequence (RNS) peptides were synthesized at Genemed Synthesis, Inc. (San Francisco, Calif.), then purified by high pressure liquid chromatography (>95% pure), and confirmed by mass spectroscopy with each showing one single peak with an appropriate molecular mass. The MANS peptide consisted of sequence identical to the first 24 amino acids of MARCKS, i.e. the myristoylated N-terminal region that mediates MARCKS insertion into membranes, MA-[…] […]

PP2A [5] = molecular target: PP2A (Homo sapiens, UniProt P67775); conditions: inhibitor of PP2A; cited from earlier work
PP2A (Homo sapiens, UniProt P67775), sequence (P67775 whole entry): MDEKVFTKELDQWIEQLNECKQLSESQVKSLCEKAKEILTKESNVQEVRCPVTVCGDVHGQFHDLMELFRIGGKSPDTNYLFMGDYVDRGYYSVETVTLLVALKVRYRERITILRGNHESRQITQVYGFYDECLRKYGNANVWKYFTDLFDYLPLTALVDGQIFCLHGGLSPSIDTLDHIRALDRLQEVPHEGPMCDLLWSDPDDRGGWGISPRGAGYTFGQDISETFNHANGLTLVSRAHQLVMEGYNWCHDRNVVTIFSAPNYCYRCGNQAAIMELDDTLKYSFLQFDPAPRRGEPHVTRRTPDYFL

SMILES	PP1 activity (PP1)	effect on MARCKS phosphorylation induced by PMA ([1]; 1 μM 8-Br-cGMP, 100 nM PMA)	MPO secretion from LPS-stimulated canine neutrophils [2]	MPO secretion from LPS-stimulated human neutrophils [3]	PP2A activity (PP2A [4]; NHBE cells after 8-Br-cGMP, from 0.1) [nmol/min/mg proteins]	increase of PP2A activity (PP2A [4]; NHBE cells, 8-Br-cGMP as low as 0.1 μM, p<0.01)	effect on PKG-induced MARCKS dephosphorylation ([1]; 500 nM okadaic acid)	mucin secretion induced by PMA+8-Br-cGMP or UTP (NHBE cells)	pIC50 (PP2A [5])	effect on PKG-induced MARCKS dephosphorylation ([1]; fostriecin 1-500 nM)
Nc1nc2c(nc(Br)n2[C@@H]2O[C@@H]3COP(=O)(O)O[C@H]3[C@H]2O)c(=O)[nH]1 [8-Br-cGMP]	remained unchanged	reversed	little effect	little effect	0.3	approximately 3 fold	–	–	–	–
C=C1[C@@H](O)[C@@H]2O[C@]3(CC[C@H](/C=C/[C@@H](C)[C@@H]4CC(C)=C[C@@]5(O[C@H](C[C@@](C)(O)C(=O)O)CC[C@H]5O)O4)O3)CC[C@H]2O[C@@H]1[C@@H](O)C[C@H](C)[C@H]1O[C@@]2(CCCCO2)CC[C@H]1C [okadaic acid]	–	–	–	–	–	–	blocked	attenuated mucin secretion	–	–
C[C@@](O)(/C=C/[C@H]1CC=CC(=O)O1)[C@@H](C[C@@H](O)\C=C/C=C\C=C\CO)OP(=O)(O)O [fostriecin]	–	–	–	–	–	–	–	attenuated mucin secretion	8.49	inhibited PKG-induced MARCKS dephosphorylation in a concentration-dependent manner
